Laboratory results reported in patent US20240390315A1, “NUTRITIONAL COMPOSITIONS” (MITOCHOLINE Ltd, priority 2021, published 2024).

Assays:
[1] = plasma, healthy adult males, single oral beverage supplying 550 mg choline, after overnight fasting; ranking among the three supplements
Excerpt: Study: a randomized cross-over study on 12 adult male subjects.
Subjects: 12 healthy adult male subjects (3 placebo and 9 test supplement (each supplement group-3 subjects)) who are between 30 and 60 years of age.
Duration: One-day oral administration of a choline supplement was followed by 1 week of wash-out before the start of administration of the next (different) choline supplement.
Subjects took each of the three supplements in randomized sequence with interspersed wash-out periods of 1 week. […] The beverages were consumed in the morning after overnight fasting. Blood (2.7 ml EDTA) was taken before intake (−0.1 h) and at 0.5, 1, 1.5, 2, 3, 4, 5, and 6 h after intake. Collected blood was immediately centrifuged at 1000×g at room temperature for 10 min. Plasma was separated and stored at −80° C. until analysis. […] Equipment for analysis: TSQ Quantum Discovery MAX tandem mass spectrometer, a Finnigan Surveyor Autosampler Plus, and a Finnigan Surveyor MS Pump Plus (Thermo Fisher Scientific, Dreieich, Germany), and choline, betaine were separated on a Polaris Si-A® column at 40° C. and the components were analyzed.

[2] = molecular target: neuronal insulin receptor (Homo sapiens, UniProt P06213); settings: cited from earlier work
[3] = test system: isolated mitochondria; settings: rat liver mitochondria incubated 15 min at 37° C. with test substrate, LC-MS/MS; compared with choline chloride
Protocol: Livers from male Wistar rats were homogenized using a Teflon®-glass Potter-Elvehjem homogenizer in the isolation medium containing 0.25 M sucrose, 0.02 M Tris-HCl, 0.001 M EDTA, pH 7.2. The homogenates prepared in this way were centrifuged at 600 g for 10 min at 4° C. to precipitate nuclei and cell debris. Then the supernatant was separated from the sediment and subjected to centrifugation at 8500 g for 10 min at 4° C. to precipitate mitochondria.

Chain of neuronal insulin receptor (P06213 28-1382): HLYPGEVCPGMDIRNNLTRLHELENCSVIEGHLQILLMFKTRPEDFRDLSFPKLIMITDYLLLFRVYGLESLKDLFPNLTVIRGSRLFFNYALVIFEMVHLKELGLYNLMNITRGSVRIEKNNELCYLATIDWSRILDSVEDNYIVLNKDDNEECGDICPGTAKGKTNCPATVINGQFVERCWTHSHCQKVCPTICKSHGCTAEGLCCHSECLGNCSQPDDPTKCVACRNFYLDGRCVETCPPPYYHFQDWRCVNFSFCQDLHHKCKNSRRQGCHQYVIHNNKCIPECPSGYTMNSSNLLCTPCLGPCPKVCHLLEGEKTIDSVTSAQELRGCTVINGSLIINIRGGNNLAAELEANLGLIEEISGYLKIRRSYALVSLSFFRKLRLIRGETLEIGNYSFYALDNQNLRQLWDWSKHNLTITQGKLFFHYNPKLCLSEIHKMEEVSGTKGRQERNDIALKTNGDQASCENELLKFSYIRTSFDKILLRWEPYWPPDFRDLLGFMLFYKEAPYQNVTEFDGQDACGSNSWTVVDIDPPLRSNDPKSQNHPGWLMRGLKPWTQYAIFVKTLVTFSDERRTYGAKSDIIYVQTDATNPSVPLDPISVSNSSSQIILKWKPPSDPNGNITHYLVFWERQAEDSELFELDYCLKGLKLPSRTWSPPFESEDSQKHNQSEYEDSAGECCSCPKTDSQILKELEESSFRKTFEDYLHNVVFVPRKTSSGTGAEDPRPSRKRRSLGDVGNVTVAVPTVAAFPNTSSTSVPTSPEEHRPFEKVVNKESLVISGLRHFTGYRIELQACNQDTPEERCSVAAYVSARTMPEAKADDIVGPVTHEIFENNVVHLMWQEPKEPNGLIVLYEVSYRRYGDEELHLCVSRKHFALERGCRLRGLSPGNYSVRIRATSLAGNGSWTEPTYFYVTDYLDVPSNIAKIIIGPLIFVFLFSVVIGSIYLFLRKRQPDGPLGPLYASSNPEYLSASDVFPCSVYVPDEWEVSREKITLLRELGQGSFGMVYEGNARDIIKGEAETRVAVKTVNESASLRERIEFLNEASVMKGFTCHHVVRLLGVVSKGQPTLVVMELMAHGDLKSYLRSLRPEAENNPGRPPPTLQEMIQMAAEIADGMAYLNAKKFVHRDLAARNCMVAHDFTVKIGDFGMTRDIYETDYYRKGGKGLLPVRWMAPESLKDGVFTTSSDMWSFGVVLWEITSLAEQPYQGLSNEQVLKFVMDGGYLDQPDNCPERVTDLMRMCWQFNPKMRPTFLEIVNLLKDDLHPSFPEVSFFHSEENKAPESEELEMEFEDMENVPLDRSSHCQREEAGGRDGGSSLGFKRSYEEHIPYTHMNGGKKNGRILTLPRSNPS

| Molecule | AUC (0-6 h) of betaine concentrations [1] | sensitization of the neuronal insulin receptor [2] | betaine yield (concentration of betaine in the incubation medium) [3] |
| --- | --- | --- | --- |
| C[N+](C)(C)CCO.O=C([O-])C(O)C(O)C(=O)O (stereo not shown) [choline bitartrate] | dicholine succinate>choline bitartrate>choline chloride |  |  |
| C[N+](C)(C)CCO.[Cl-] [choline chloride] | lowest |  |  |
| dicholine succinate [DiSu] |  | potent sensitizer | higher betaine yields |
